Measurements from patent US7067113B2, “Methods for identifying compounds for regulating muscle mass or function using dopamine receptors” (The Procter & Gamble Company, priority 2002, dated 2006).

How the values were obtained:
[1] = test system: casting-induced (disuse) atrophy in mice; assay: leg casting disuse atrophy model; format: in vivo, mouse; conditions: male mice
Description: Legend: A—physiological saline (control); B—SKF 81297 (0.3 mg/kg)+theophylline; C—SKF 81297 (1.0 mg/kg)+theophylline; D—SKF 81297 (3.0 mg/kg)+theophylline; *−p≦0.05 compared to saline. Following casting of the right hind leg, male mice were injected subcutaneously in the midscapular region twice daily, with SKF 81297 or vehicle control (physiological saline) for ten days at the daily delivered dose indicated. SKF 81297 was co-administered with twice daily intra-peritoneal dosing of the phosphodiesterase inhibitor theophylline (30 mg/kg). On day ten, the tibialis anterior muscle was removed and weighed to determine the degree of atrophy.
Legend: A—physiological saline (control); B—fenoldopam (0.3 mg/kg); C—fenoldopam (1.0 mg/kg); D—fenoldopam (3.0 mg/kg); *−p≦0.05 compared to saline. Following casting of the right hind leg, male mice were injected subcutaneously in the midscapular region twice daily, with fenoldopam or vehicle control (physiological saline) for ten days at the daily delivered dose indicated. On day ten, the medial gastrocnemius muscle was removed and weighed to determine the degree of atrophy.
The leg casting disuse atrophy model involves casting one hind leg of an animal from the knee down through the foot. Typically, muscle mass is reduced 20–40% after ten days of casting. Following casting, test compounds are administered by injection or by continuous infusion via implantation of an osmotic minipump (e.g., Alzet, Palo Alto, Calif.) to determine their effect on leg casting induced skeletal muscle atrophy. At various times following leg casting, the extent of atrophy in the affected muscles is analyzed as described above for the denervation model.

[2] = test system: mouse sciatic nerve denervation atrophy model; assay: mouse sciatic nerve denervation atrophy model; format: in vivo; conditions: male mice
Description: Legend: A—physiological saline (control); B—SKF 81297 (0.3 mg/kg)+theophylline; C—SKF 81297 (1.0 mg/kg)+theophylline; D—SKF 81297 (3.0 mg/kg)+theophylline. *−p≦0.05 compared to saline. Following denervation of the right sciatic nerve, male mice were injected subcutaneously in the midscapular region twice daily with SKF 81297, at the doses indicated above or vehicle control (physiological saline) for nine days. SKF 81297 was co-administered with twice daily intra-peritoneal dosing of the phosphodiesterase inhibitor theophylline (30 mg/kg). On day nine, the tibialis anterior and medial gastrocnemius muscles were removed and weighed to determine the degree of atrophy.
The sciatic nerve denervation atrophy model involves anesthetizing the animal followed by the surgical removal of a short segment of either the right or left sciatic nerve, e.g., in mice the sciatic nerve is isolated approximately at the midpoint along the femur and a 3–5 mm segment is removed. This denervates the lower hind limb musculature resulting in atrophy of these muscles. Typically, innervation to the biceps femoris is left intact to provide satisfactory motion of the knee for virtually normal ambulation. Typically, in untreated animals, muscle mass of the denervated muscles is reduced 30–50% ten days following denervation. Following denervation, test compounds are administered e.g., by injection or by continuous infusion, e.g., via implantation of an osmotic minipump (e.g., Alzet, Palo Alto, Calif.), to determine their effect on denervation induced skeletal muscle atrophy. At various times following denervation, the animals are euthanized and lower leg muscles are dissected rapidly from both the denervated and nondenervated legs, the muscles, cleaned of tendons and connective tissue, are weighed. The extent of atrophy in the affected muscles is analyzed, for example, by measuring muscle mass, muscle cross-sectional area, myofiber cross-sectional area or contractile protein content.

Row | SMILES | disuse-induced atrophy of the tibialis anterior muscle (muscle weight) ([1]; right hind leg casted, s.c. twice daily for ten days, 0.3, 1.0, 3.0 mg/kg, + theophylline 30 mg/kg i.p. twice daily, FIG. 2) | hypertrophy of the tibialis anterior muscles of the non-casted leg ([1]; s.c. twice daily for ten days, + theophylline 30 mg/kg i.p., FIG. 2) | denervation-induced atrophy of the tibialis anterior muscle (muscle weight) ([2]; s.c. twice daily for nine days, 0.3, 1.0, 3.0 mg/kg, + theophylline 30 mg/kg i.p. twice daily, FIG. 1A) | denervation-induced atrophy of the medial gastrocnemius muscle (muscle weight) ([2]; s.c. twice daily for nine days, 0.3, 1.0, 3.0 mg/kg, + theophylline 30 mg/kg i.p. twice daily, FIG. 1B) | hypertrophy in the normal (non-denervated) tibialis anterior muscle ([2]; s.c. twice daily for nine days, + theophylline 30 mg/kg i.p., FIG. 1A) | hypertrophy in the normal (non-denervated) medial gastrocnemius muscle ([2]; s.c. twice daily for nine days, + theophylline 30 mg/kg i.p., FIG. 1B) | disuse-induced atrophy of the medial gastrocnemius muscle (muscle weight) ([1]; right hind leg casted, s.c. twice daily for ten days, 0.3, 1.0, 3.0 mg/kg, FIG. 3)
1 | Oc1cc2c(c(Cl)c1O)CCNCC2c1ccccc1 (stereo not shown) [SKF 81297, 6-chloro-7,8-dihydroxyl-1-phenyl-2,3,4,5-tetrahydro-1H-3-benzazepine] | inhibits | statistically significant hypertrophy | inhibits | inhibits | induces hypertrophy | induces hypertrophy | –
2 | Oc1ccc(C2CNCCc3c2cc(O)c(O)c3Cl)cc1 (stereo not shown) [Fenoldopam, 6-chloro-2,3,4,5-tetrahydro-1-(4-hydroxyphenyl)-[1H]-3-benzazepine-7,8-diol] | – | – | – | – | – | – | inhibits
